What was measured:
Daoy cells [1] = test: Soft-agar colony formation assay; assay type: cell-based, human; conditions: stable 199bSC1 clone vs empty-vector clone
Procedure: Daoy cells and the stable 199b clone were seeded in 1 ml EMEM supplemented with 2% FBS, containing 0.3% agarose. Cultures were maintained for two weeks and refreshed with EMEM supplemented with 2% FBS twice per week. Colonies of more than 100 μm in diameter were counted under a Leica (Nussloch, Germany) DC500 compound microscope.

cyclin L1 3′UTR = test: Luciferase reporter assay, full-length 3′UTR; assay type: cell-based; conditions: miR-199b-5p over-expression in Daoy cells
Procedure: To determine the activity of miR-199b-5p on repression of the luciferase-3′UTR fused constructs, the pREYZO-miR-199b-5p construct and the pRL-CMV-3′UTR target construct were co-transfected into HEK293 cells at a ratio of 10:1, using the Polyfect reagent (Qiagen) together with the pGL3 basic vector, in the absence and presence of 2-OM (400 nM). Luciferase activities were analysed using a Dual Luciferase Reporter Assay system (Promega, Madison, Wis.).

Daoy cells [2] = test: In-vitro cell-motility assay (Boyden chamber); assay type: cell-based, human; conditions: 199bSC1 vs empty vector control, 0.5% FBS chemoattractant
Procedure: The control DAOY cell line and the stable DAOY-199bSC1 clone were used in the ‘cell-motility’ assays. Cell migration assays were performed with 8-μm pore size Transwells (Costar). The cells were suspended by trypsinization, washed, and resuspended in 100 μl serum-free DMEM containing 0.1% BSA (5×10^4 cells) and placed in the upper chamber of the Transwells. The lower chamber was filled with 600 μl serum-free DMEM supplemented with 0.5% FBS, as the chemo-attractor. The cells were allowed to migrate for 1 h at 37° C. Cells migrating to the lower side of the polycarbonate membrane were fixed with 2.5% glutaraldehyde and stained with Hematoxylin solution (Sigma). The cells were counted, and the analysis performed on three Transwells for each condition, and each experiment was repeated twice.

Daoy cells [3] = test: s.c. flank xenograft with bioluminescence imaging; assay type: in vivo, athymic nude/nude mice
Procedure: Stable Daoy cell clones were generated by transfecting a luciferase-expressing vector (the firefly luciferase gene cloned in the plentiV5 vector; Invitrogen) into the stable 199bSC1 clone or into the control empty-vector clone. Then 100,000 viable 199b-Luc1 and Ctl-Luc-4 cells were mixed with a 1:1 PBS:matrigel solution (BD Biosciences, San Jose, Calif.). Six-week-old female athymic mice were anesthetised using avertin (Sigma) as a 3% solution in tert-amyl alcohol (Fisher), at a dose of 3 mg per 10 g body weight. The mice were injected s.c. with a total volume of 0.1 mL of matrigel PBS cell suspension, into each flank. The mice were imaged after the implantation of the cells, with tumor growth monitored by weekly bioluminescence acquisitions (BLI) using an MS 3D Illumina Imaging System (Xenogen Corp. Alameda, Calif.). For the acquisitions, the mice were […] with 100 μL D-luciferin (15 mg/mL stock) per 10 g body weight, and imaged for 30 s, 10 min after luciferin injection; four acquisitions per mouse were made (ventral, dorsal and each flank). To quantify the bioluminescence, the integrated fluxes of photons (photons per s) within each area of interest were determined using the Living Images Software Package 3.0 (Xenogen-Caliper). The emission data from the start of tumor growth were collected for at least 6 weeks, and then were normalized to the bioluminescence on the injection day. Calliper measurements of tumor sizes were made weekly, along the long and short axes, and estimations of their volumes were made using the formula: width2×length×0.52.

miR-199b-5p: mature microRNA CCCAGUGUUUAGACUAUCUGUUC (SEQ ID NO:11); over-expressed from pre-miR-199b construct, e.g. stable Daoy clones 199bSC1, 199bMC1 (listed as RNA, chemistry not fully specified)
reduction in colony formation potential (Daoy cells [1]): 80%
down-regulation of reporter carrying cyclin L1 3′UTR (cyclin L1 3′UTR): did not detect any down-regulatory effects
cell motility (Daoy cells [2]): did not lead to a decrease in cell motility
tumor volumes, control flanks vs miR-199b-5p flanks (Daoy cells [3]; 199b-Luc1 vs Ctl-Luc-4 Daoy clones): significant difference in tumor volumes
mice with statistically significant difference in bioluminescence signal between control and miR-199b-5p sides (Daoy cells [3]; after nine weeks): four out of the five
tumors detectable macroscopically (Daoy cells [3]; s.c. injection of Daoy cells over-expressing miR-199b-5p, nine weeks (control cells 5/5)): 3/5
